The record followed here is the supplement of paper PMC10307832.

Common to all, as to test: relative viability (nuclei count vs DMSO), 5 days (fraction); higher = more cells survive
Compound in experiment [1]: Cn1nnc2c(C(N)=O)ncn2c1=O [Temozolomide] + O=C(CCCCCCC(=O)Nc1ccccc1)NO [Vorinostat] (partner 1 µM)
The procedure, abridged: (§1)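 Relative viability divides the nuclei count in treated wells by that in vehicle wells. Lung cancer cell lines were seeded in 1536-well plates, dosed by pin tool the next day, and fixed and stained after 5 days in one step with final 0.05% Triton X-100, 1% formaldehyde and 1 ug/ml Hoechst. Dosing was a single drug or a fixed anchor-drug dose plus five library-drug doses (not always all listed) in √10 steps, and values are medians of duplicate plates imaged at 4×.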

Compound in experiment [2]: C[C@@H](C(=O)N[C@@H](C1CCCCC1)C(=O)N2CCC[C@H]2C(=O)N[C@@H]3[C@@H](CC4=CC=CC=C34)OCC#CC#CCO[C@@H]5CC6=CC=CC=C6[C@@H]5NC(=O)[C@@H]7CCCN7C(=O)[C@H](C8CCCCC8)NC(=O)[C@H](C)NC)NC [AZD5582] + CC(=O)Nc1cccc(-n2c(=O)n(C3CC3)c(=O)c3c(Nc4ccc(I)cc4F)n(C)c(=O)c(C)c32)c1 [Trametinib] (partner 0.02 µM)
The procedure, abridged:
as §1

Compound in experiment [3]: C[C@@H](C(=O)N[C@@H](C1CCCCC1)C(=O)N2CCC[C@H]2C(=O)N[C@@H]3[C@@H](CC4=CC=CC=C34)OCC#CC#CCO[C@@H]5CC6=CC=CC=C6[C@@H]5NC(=O)[C@@H]7CCCN7C(=O)[C@H](C8CCCCC8)NC(=O)[C@H](C)NC)NC [AZD5582] + N=C(N)NC(=N)NCCc1ccccc1 [Phenformin] (partner 250 µM)
The procedure, abridged:
as §1

Compound in experiment [4]: Cn1nnc2c(C(N)=O)ncn2c1=O [Temozolomide] + CC(C)C[C@H](NC(=O)[C@H](Cc1ccccc1)NC(=O)c1cnccn1)B(O)O [Bortezomib] (partner 0.002 µM)
The procedure, abridged: as §1

With NCI-H3122, the relative viability worked out at 1.11 in experiment [1] (first compound 0.2 µM); 0.988 in experiment [1] (first compound 0.6325 µM); 1.17 in experiment [1] (first compound 2 µM); 0.998 in experiment [1] (first compound 6.325 µM); 0.96 in experiment [1] (first compound 20 µM); 0.269 in experiment [2] (first compound 0.001581 µM). The relative viability in experiment [2] (first compound 0.005 µM) worked out at 0.224; in experiment [2] (first compound 0.01581 µM), 0.24; in experiment [2] (first compound 0.05 µM) it was 0.206; in experiment [3] (first compound 0.001581 µM) it was 0.362; in experiment [3] (first compound 0.005 µM), 0.376; in experiment [3] (first compound 0.01581 µM), 0.354. Besides, the relative viability in experiment [3] (first compound 0.05 µM) stood at 0.19; in experiment [4] (first compound 0.2 µM), 1.01; in experiment [4] (first compound 0.6325 µM), 1.1; in experiment [4] (first compound 2 µM), 1.04; in experiment [4] (first compound 6.325 µM), 0.937; in experiment [4] (first compound 20 µM), 1.04.
For the cell line PC-3 [JPC-3], the relative viability was found to be 1.21 in experiment [1] (first compound 0.2 µM); 0.737 in experiment [1] (first compound 0.6325 µM); 0.937 in experiment [1] (first compound 2 µM); 0.732 in experiment [1] (first compound 6.325 µM); 0.319 in experiment [1] (first compound 20 µM); 0.668 in experiment [2] (first compound 0.001581 µM). Moreover, the relative viability in experiment [2] (first compound 0.005 µM) amounted to 0.627; in experiment [2] (first compound 0.01581 µM), 0.696; in experiment [2] (first compound 0.05 µM), 0.486; in experiment [3] (first compound 0.001581 µM) it was 0.465; in experiment [3] (first compound 0.005 µM), 0.441; in experiment [3] (first compound 0.01581 µM), 0.47. Moreover, the relative viability in experiment [3] (first compound 0.05 µM) came out at 0.381; in experiment [4] (first compound 0.2 µM), 0.844; in experiment [4] (first compound 0.6325 µM), 0.781; in experiment [4] (first compound 2 µM), 0.874; in experiment [4] (first compound 6.325 µM), 0.791; in experiment [4] (first compound 20 µM) it was 0.418.
For the cell line PC-14, the relative viability in experiment [1] (first compound 0.2 µM) is 0.74; in experiment [1] (first compound 0.6325 µM) it was 0.923; in experiment [1] (first compound 2 µM), 0.693; in experiment [1] (first compound 6.325 µM), 0.768; in experiment [1] (first compound 20 µM) it was 0.0952; in experiment [2] (first compound 0.001581 µM), 0.404. For the same cell line, the relative viability worked out at 0.44 in experiment [2] (first compound 0.005 µM); 0.722 in experiment [2] (first compound 0.01581 µM); 0.397 in experiment [2] (first compound 0.05 µM); 0.556 in experiment [3] (first compound 0.001581 µM); 0.5 in experiment [3] (first compound 0.005 µM); 0.353 in experiment [3] (first compound 0.01581 µM). In addition, the relative viability is 0.511 in experiment [3] (first compound 0.05 µM); 0.94 in experiment [4] (first compound 0.2 µM); 0.872 in experiment [4] (first compound 0.6325 µM); 0.943 in experiment [4] (first compound 2 µM); 0.83 in experiment [4] (first compound 6.325 µM); 1.04 in experiment [4] (first compound 20 µM).
In the case of RERF-LC-KJ, the relative viability in experiment [1] (first compound 0.2 µM) is 0.602; in experiment [1] (first compound 0.6325 µM), 0.7; in experiment [1] (first compound 2 µM), 0.756; in experiment [1] (first compound 6.325 µM), 0.646; in experiment [1] (first compound 20 µM), 0.663; in experiment [2] (first compound 0.001581 µM) it was 0.764. The relative viability stood at 0.818 in experiment [2] (first compound 0.005 µM); 0.898 in experiment [2] (first compound 0.01581 µM); 0.781 in experiment [2] (first compound 0.05 µM); 0.35 in experiment [3] (first compound 0.01581 µM); 0.197 in experiment [3] (first compound 0.05 µM); 1.13 in experiment [4] (first compound 0.2 µM). Further, the relative viability amounted to 1.3 in experiment [4] (first compound 0.6325 µM), 1.17 in experiment [4] (first compound 2 µM), 1.09 in experiment [4] (first compound 6.325 µM) and 1.08 in experiment [4] (first compound 20 µM).
In the case of SK-LU-1, the relative viability stood at 0.89 in experiment [1] (first compound 0.2 µM); 0.769 in experiment [1] (first compound 0.6325 µM); 0.713 in experiment [1] (first compound 2 µM); 0.505 in experiment [1] (first compound 6.325 µM); 0.421 in experiment [1] (first compound 20 µM); 0.379 in experiment [2] (first compound 0.001581 µM). Also, the relative viability in experiment [2] (first compound 0.005 µM) was found to be 0.383; in experiment [2] (first compound 0.01581 µM) it was 0.407; in experiment [2] (first compound 0.05 µM), 0.236; in experiment [3] (first compound 0.001581 µM), 0.362; in experiment [3] (first compound 0.005 µM), 0.342; in experiment [3] (first compound 0.01581 µM), 0.508. Further, the relative viability in experiment [3] (first compound 0.05 µM) came to 0.279; in experiment [4] (first compound 0.2 µM), 1.33; in experiment [4] (first compound 0.6325 µM), 1.3; in experiment [4] (first compound 2 µM), 1.22; in experiment [4] (first compound 6.325 µM), 0.53; in experiment [4] (first compound 20 µM), 0.417.
In the case of SW 1573, the relative viability turned out to be 0.794 in experiment [1] (first compound 0.2 µM); 1.04 in experiment [1] (first compound 0.6325 µM); 1.08 in experiment [1] (first compound 2 µM); 0.803 in experiment [1] (first compound 6.325 µM); 0.633 in experiment [1] (first compound 20 µM); 0.473 in experiment [2] (first compound 0.001581 µM). Besides, the relative viability in experiment [2] (first compound 0.005 µM) came to 0.586; in experiment [2] (first compound 0.01581 µM), 0.537; in experiment [2] (first compound 0.05 µM), 0.662; in experiment [3] (first compound 0.001581 µM), 0.394; in experiment [3] (first compound 0.005 µM), 0.466; in experiment [3] (first compound 0.01581 µM), 0.37. Also, the relative viability in experiment [3] (first compound 0.05 µM) was determined as 0.499; in experiment [4] (first compound 0.2 µM), 0.949; in experiment [4] (first compound 0.6325 µM), 1.12; in experiment [4] (first compound 2 µM), 1.05; in experiment [4] (first compound 6.325 µM), 1.19; in experiment [4] (first compound 20 µM) it was 1.18.
As for UMC-11, the relative viability in experiment [1] (first compound 0.2 µM) was determined as 0.388; in experiment [1] (first compound 0.6325 µM) it was 0.415; in experiment [1] (first compound 2 µM), 0.423; in experiment [1] (first compound 6.325 µM), 0.391; in experiment [1] (first compound 20 µM), 0.264; in experiment [2] (first compound 0.001581 µM) it was 0.624. In addition, the relative viability in experiment [2] (first compound 0.005 µM) stood at 0.679; in experiment [2] (first compound 0.01581 µM), 0.629; in experiment [2] (first compound 0.05 µM) it was 0.417; in experiment [3] (first compound 0.001581 µM) it was 0.281; in experiment [3] (first compound 0.005 µM), 0.301; in experiment [3] (first compound 0.01581 µM) it was 0.298. For the same cell line, the relative viability in experiment [3] (first compound 0.05 µM) came to 0.412; in experiment [4] (first compound 0.2 µM) it was 0.861; in experiment [4] (first compound 0.6325 µM), 0.924; in experiment [4] (first compound 2 µM), 0.945; in experiment [4] (first compound 6.325 µM), 0.519; in experiment [4] (first compound 20 µM), 0.377.
